# Source: patent US7214696B2, “Compositions and methods for stabilizing transthyretin and inhibiting transthyretin misfolding” (The Scripps Research Institute, priority 2002, dated 2007)
# Where two headings read alike, the source gives them in different places.
# Assays:
# [1] = biological target: T1, TTR in human blood plasma (Homo sapiens, UniProt P02766); experiment: Immunoprecipitation/HPLC binding stoichiometry of PCBs and OH-PCBs in plasma, Example 4; set-up: from tissue; host or cells: human blood plasma from healthy volunteers; settings: OH-PCB 10.8 μM in human blood plasma; post-wash lower limit
# Procedure: After washing, the PCB or OH-PCB binding stoichiometry to TTR (≈5 μM) was evaluated by reverse phase HPLC.
# A 2 mL eppendorf tube was filled with 1.5 mL of human blood plasma and 7.5 μL of a 2.16 mM DMSO solution of the PCB under evaluation. This solution was incubated at 37° C. for 24 h. A 1:1 resin/TSA slurry (187 μL) of quenched Sepharose was added to the solution and gently rocked at 4° C. for 1 h. The solution was centrifuged (16,000×g) and the supernatant divided into 3 aliquots of 400 μL each. These were each added to 200 μL of a 1:1 resin/TSA slurry of the anti-transthyretin antibody-conjugated Sepharose and slowly rocked at 4° C. for 20 min. The samples were centrifuged (16,000×g) and the supernatant removed. The resin was washed with 1 mL TSA/0.05% Saponin (Acros) (3×10 min) at 4° C., and additionally with 1 mL TSA (2×10 min) at 4° C. […]
# The supernatant elution samples from the TTR antibody beads (145 μL) were loaded onto a Waters 71P autosampler. […] Detection was accomplished at 280 nm with a Waters 486 tunable absorbance detector, and the peaks were integrated to give the area of both TTR and the small molecule. In order to determine the quantity of each species, known amounts of tetrameric TTR or PCB were injected onto the HPLC. […] The ratio of small molecule to protein was calculated to yield the stoichiometry of small molecule bound to TTR in plasma.
# [2] = biological target: T2, WT TTR (Homo sapiens, UniProt P02766); experiment: Transthyretin amyloid fibril formation assay (pH 4.4, 72 h, OD 400 nm), Example 4; format: biochemical; settings: equimolar inhibitor and TTR concentration (3.6 μM)
# Procedure: TTR secreted into blood from the liver appears to be the source of systemic TTR amyloid. While it is not yet clear where or how amyloid is formed in humans, the typical denaturant in cells is acid, which is effective in converting nearly all amyloidogenic peptides and proteins into amyloid and/or related aggregates. […] Hydroxylated PCBs and PCB 3 were highly efficacious as TTR fibril inhibitors. At an inhibitor concentration equal to the WT TTR concentration (3.6 μM), only 12–50% of the normal amount of fibril formation was observed after a 72 h incubation period.
# The compounds were dissolved in DMSO at a concentration of 720 μM. Five μL of a solution of the compound being evaluated was added to 0.5 mL of a 7.2 μM TTR solution in 10 mM phosphate pH 7.6, 100 mM KCl, 1 mM EDTA buffer, allowing the compound to incubate with TTR for 30 min. 495 μL of […] acetate pH 4.2, 100 mM KCl, 1 mM EDTA was added, to yield final protein and inhibitor concentrations of 3.6 μM each and a pH of 4.4. The mixture was then incubated at 37° C. for 72 h, after which the tubes were vortexed for 3 sec and the optical density was measured at 400 nm. The extent of fibril formation was determined by normalizing each optical density by that of TTR without inhibitor, defined to be 100% fibril formation. Control solutions of each compound in the absence of TTR were also tested and none absorbed appreciably at 400 nm.
# [3] = biological target: T1, TTR in human blood plasma; format: binding; set-up: from tissue; host or cells: human blood plasma from healthy volunteers; settings: test compound 10.8 μM, 24 h, 37° C.
# Procedure: Human blood plasma (TTR conc. 3.6–5.4 μM) was incubated for 24 h with the test compound (10.8 μM) at 37° C. The TTR and any bound inhibitor were immunoprecipitated using a sepharose-bound polyclonal TTR antibody. The TTR with or without inhibitor bound was liberated from the resin at high pH, and the inhibitor:TTR stoichiometry was ascertained by HPLC analysis (FIG. 8).
# [4] = biological target: TTR tetramer (Homo sapiens, UniProt P02766); experiment: Tetramer dissociation in 6 M urea, Example 4; format: biochemical
# From the text: In addition to their high binding selectivity to plasma TTR, the OH-PCBs and PCB 3 also display excellent inhibition of TTR fibril formation in vitro. […] This is likely attributable to their high binding affinity (also consistent with their low off rate) and their non- or positively cooperative TTR binding properties which are unusual. […] Ground state stabilization raises the tetramer dissociation barrier (rate limiting step in TTR amyloidogenesis) substantially, such that the tetramer cannot dissociate on a biologically relevant timescale. […] OH-PCB 18 (3.6 μM) is believed to be an impressive amyloid inhibitor because it is an excellent kinetic stabilizer of tetrameric TTR, i.e. it prevents ⅔ of a 3.6 μM TTR sample from being amyloidogenic at pH 4.4 because TTR•18 and TTR•182 are incompetent to form amyloid, the remainder of TTR (1.18 μM) forms amyloid very inefficiently because of its low concentration. The dissociation rates of the best OH-PCB inhibitors may also be slower than expected because of TTR structural annealing around the OH-PCB, but this has not yet been evaluated as carefully as required.
# [5] = biological target: wt transthyretin tetramer (Homo sapiens, UniProt P02766); experiment: TTR tetramer dissociation in 6 M urea, Example 5; settings: TTR 1.8 μM, inhibitor 3.6 μM
# From the text: An inhibitor's ability to do this is most rigorously tested by measuring its efficacy at slowing tetramer dissociation in 6 M urea, a severe denaturation stress. Thus, the rates of TTR tetramer dissociation in 6 M urea in the presence and absence of 20, 21 or 27 were compared (FIG. 9).
# [6] = biological target: T3, TTR in whole blood (Homo sapiens, UniProt P02766); experiment: Binding stoichiometry of OH-PCBs in whole blood, Example 4
# T3 construct: Whole blood was drawn from healthy volunteers; from tissue; host or cells: human whole blood from healthy volunteers
# From the text: Up to two PCBs can bind to the two identical thyroid hormone binding sites in a TTR tetramer. […] Several of the hydroxylated PCBs (e.g., 16 and 22) approach a binding stoichiometry of 2.
# [7] = biological target: T2, WT TTR; experiment: Stagnant acid-mediated fibril formation assay (turbidity, pH 4.4, 72 h), Example 2; settings: 3.6 TM TTR, 37° C.
# Procedure: Each compound was subjected to a stagnant fibril formation assay. […] The mixture was vortexed and incubated for 30 min (25° C.), at which time the pH was lowered to 4.4 with 500 TL of 200 mM acetate, 100 mM KCl and 1 mM EDTA (pH 4.2). The final 1 mL solution was vortexed and incubated for 72 h at 37° C. without agitation. After 72 h, the cuvettes were vortexed to suspend any fibrils present, and the turbidity of the suspension was measured at 350 and 400 nm using a UV-vis spectrometer. […] All assays were performed in triplicate and all compounds were assayed using wild-type TTR.
# After incubation of each mixture for 72 h (37° C.), the turbidity was measured at 350 and 400 nm using a UV-vis spectrometer. All amyloid fibril formation data was normalized to WT TTR amyloidogenesis in the absence of inhibitor, assigned to be 100% fibril formation.
# [8] = Serum diflunisal levels in healthy volunteers (HPLC), Example 3; format: in vivo; settings: both sexes, human, oral
# Procedure: (§1) Thirty healthy volunteers (25 male, 5 female) were enrolled after informed consent was given. The subjects ranged from 23 to 53 years of age (mean age, 37.6±8.8) with a mean body weight of 78.0±12.1 kg. […] This study design was approved by the Human Subjects Committee of Scripps Clinic, Scripps Green Hospital, The Scripps Research Institute, and The Scripps General Clinical Research Center.
# Serum diflunisal levels were measured. One hundred μL of serum was added to 900 μL of acetonitrile to precipitate the proteins. Following centrifugation, 100 μL of supernatant was added to 900 μL of 100 mM aqueous triethylamine, pH 11.5. After filtration, 100 μL of each sample was injected on a Keystone 3-cm C18 reverse-phase column using a 40–100% gradient of solution B over 10 min (solution A: 94.8% water/5% acetonitrile/0.2% trifluoroacetic acid; solution B: 94.8% acetonitrile/5% water/0.2% trifluoroacetic acid), controlled by a Waters 600E multisolvent delivery system.
# [9] = cited from earlier work
# [10] = biological target: TTR in human serum (Homo sapiens, UniProt P02766); settings: diflunisal 100 μM in serum
# Procedure: A 1:1 gel/10 mM Tris.HCl, pH 8.0/140 mM NaCl/0.025% NaN3(TSA) slurry (62.5 μL) of Sepharose was added to 500 μL of serum and incubated at 4° C. for 1 h. Following centrifugation, 400 μL of supernatant was added to 200 μL of a 1:1 gel/TSA slurry of the anti-TTR antibody-conjugated Sepharose and slowly rocked at 4° C. for 20 min. After centrifugation, the gel was washed with 1 mL of TSA/0.05% saponin (Fisher Scientific) (twice, 10 min each), and additionally with 1 mL of TSA (once, 10 min) at 4° C. […] After gentle rocking at 4° C. for 30 min, the sample was centrifuged and 145 μL of the supernatant was removed.
# [11] = biological target: T4, TTR (Homo sapiens, UniProt P02766); experiment: Rate of acid-mediated (pH 4.4) amyloid fibril formation, Example 3; format: biochemical; set-up: made in house; host or cells: Escherichia coli BL21/DE3 Epicurian gold, pmmHα plasmid; settings: diflunisal 5, 10, 20 and 60 μM
# Procedure: (§2) Fibril formation assay was carried out as follows. A recombinant TTR stock solution (7.2 μM) was diluted 1:1 with 100 mM acidification buffer. Citrate buffer was used when a final pH of ≦3.8 was desired; acetate buffer was employed when the pH range under evaluation was 4.2–6.0, and phosphate buffer was utilized for evaluating amyloidogenesis at pH 6.5. Samples were incubated at 37° C. for 72 h without stirring after acidification. The extent of fibril formation was probed by turbidity measurements at […].
# [12] = Serum chemistry and side effects in healthy volunteers given diflunisal, Example 3; format: in vivo, human
# From the text: as §1
# [13] = biological target: T5, V122I TTR (Homo sapiens, UniProt P02766, V142I); experiment: Acid-mediated amyloidogenesis of TTR variant V122I, Example 3; format: biochemical
# T5 construct: made in house; host or cells: Escherichia coli BL21/DE3 Epicurian gold, pmmHα plasmid
# Procedure: (§3) Recombinant WT TTR and variants were expressed in BL21/DE3 Epicurian gold Escherichia coli (Stratagene) transformed with the pmmHα plasmid containing the TTR and ampicillin-resistance genes. Expression and purification were performed as described previously (Lashuel et al., Biochemistry 1999; 38: 13560–73).
# as §2
# (§4) More than 80 TTR mutations predispose individuals to hereditary amyloidosis by sequence dependent alterations of the denaturation energy landscape.
# [14] = biological target: T6, V30M TTR (Homo sapiens, UniProt P02766, V50M); experiment: Acid-mediated amyloidogenesis of TTR variant V30M, Example 3; format: biochemical
# T6 construct: made in house; host or cells: Escherichia coli BL21/DE3 Epicurian gold, pmmHα plasmid
# Procedure: as §3, §2, §4
# [15] = biological target: T7, serum TTR (Homo sapiens, UniProt P02766); experiment: Serum TTR tetramer stability against urea or acid denaturation (glutaraldehyde cross-linking, immunoblot), Example 3; format: in vivo; settings: whole serum of dosed subjects, urea (0–9 M) or acid (pH 3.8–5.4)
# T7 construct: from tissue; host or cells: serum of healthy human volunteers dosed orally with diflunisal
# Procedure: Serum TTR tetramer stability towards urea denaturation was evaluated. Ten μL samples of serum were incubated (25° C.) in 90 μL of various concentrations of urea in 50 mM phosphate buffer (pH 7.0; 100 mM KCl, 1 mM EDTA, 1 mM DTT). Urea solutions were checked by refractive index to verify the concentrations prepared by weight. Glutaraldehyde cross-linking of the protein was performed by adding 10 μL of glutaraldehyde (25%). The cross-linking reaction was allowed to proceed for 4 min before it was quenched by the addition of 10 μL of NaBH4 (7% in 0.1 M NaOH). The samples were mixed with 120 μL of SDS reducing gel loading cocktail (final SDS concentration=2.5%) and boiled for 5 min.
# Serum TTR tetramer stability against acid denaturation was evaluated. Ten μL samples of serum were incubated (37° C.) in 90 μL of 100 mM acidification buffer. Citrate buffer was used when a final pH of ≦3.8 was desired; acetate buffer was employed when the pH range under evaluation was 4.2–5.4. After cross-linking, samples were analyzed by SDS-PAGE and immunoblotting as described above.
# Whole serum from the subjects was subjected to denaturation either by adding urea (0–9 M) or by adding acid (pH 3.8–5.4). […] Immunoblotting enables quantitative comparisons of the amount of folded TTR.
# [16] = biological target: T4, TTR; experiment: Rate of urea-mediated (6.5 M) TTR tetramer dissociation by CD, Example 3; format: biochemical; set-up: made in house; host or cells: Escherichia coli BL21/DE3 Epicurian gold, pmmHα plasmid; settings: 6.5 M urea; diflunisal 5, 10, 20 and 60 μM
# Procedure: Rate of TTR tetramer dissociation was measured by circular dichroism spectroscopy. The evaluation of tetramer dissociation rates was carried out using recombinant TTR (3.6 μM) samples in 6.5 M urea, a concentration in the post-transition region for tertiary structural change (Hammarstrom et al., Proc Natl Acad Sci USA 2002; 99: 16427–32). The far-UV CD spectra of TTR (210–220 nm) as a function of time was measured to evaluate the slow tetramer dissociation rate by linking it to fast tertiary structural changes.
compound,measurement,setting,value
"3′,5′-Difluorobiphenyl-4-carboxylic acid [Compound 18]",Equivalents Bound (Plasma),[1],1.36 ± 0.21
same,efficacy as fibril inhibitor,[2],among the highest observed to date
same,inhibitor:TTR binding stoichiometry in human blood plasma,[3],displayed the highest binding stoichiometries
same,tetramer dissociation in 6 M urea,[4],dramatically slowed tetramer dissociation in 6 M urea
O=C(O)c1ccc2nc(-c3ccccc3)oc2c1 [Compound 21],Equivalents Bound (Plasma),[1],1.40 ± 0.22
same,effect on dissociation of TTR,[5],did not hinder the dissociation of TTR at all
same,Equivalents Bound (Blood),[6],1.33
O=C(O)c1cc(-c2ccc(F)cc2F)ccc1O [diflunisal],reduction of TTR amyloidogenesis,[7]; 3.6 TM diflunisal,63%
same,reduction of TTR amyloidogenesis,[7]; 7.2 TM diflunisal,97%
same,concentration at 4 h after the 13th dose (day 8),"[8]; 125 mg twice a day, 125 mg bid",20.1 ± 7.1 µM
same,concentration at 12 h after the 13th dose (day 8),"[8]; 125 mg twice a day, 125 mg bid",6.9 ± 3 µM
same,concentration at 4 h after the 13th dose (day 8),"[8]; 250 mg twice a day, 250 mg bid",234 ± 76 µM
same,concentration at 12 h after the 13th dose (day 8),"[8]; 250 mg twice a day, 250 mg bid",146 ± 38.9 µM
same,concentration at 4 h after the 13th dose (day 8),"[8]; 500 mg twice a day, 500 mg bid",517 ± 79.5 µM
same,concentration at 12 h after the 13th dose (day 8),"[8]; 500 mg twice a day, 500 mg bid",422 ± 78.1 µM
same,diflunisal concentration in blood,[9]; 4 h after a single 500 mg dose,> 300 µM
same,diflunisal concentration in blood,[9]; 20 h after a single 500 mg dose,exceed 30 μM
same,blood-brain barrier penetration,[9]; in vivo,cannot cross the blood-brain barrier
same,half-life,[9]; in vivo,8 to 10 h
same,sustained plasma concentration,"[9]; orally administered, 250 mg twice daily",exceeding 100 TM
same,protein bound,[9]; serum,Greater than 99%
same,binding stoichiometry in subjects,[10],0.8–1
same,rate of acid mediated amyloid fibril formation,[11],dose dependent slowing
same,level of BUN,[12]; 250 mg bid group,increased slightly
same,serum level of albumin,[12]; 250 mg bid group,decreased moderately
same,level of BUN,[12]; 500 mg bid group,increased slightly
same,level of creatinine,[12]; 500 mg bid group,increased slightly
same,serum level of albumin,[12]; 500 mg bid group,decreased significantly
same,side effects,"[12]; 125, 250 or 500 mg bid for 7 days, during or after the study",No obvious side effects were observed
same,inhibition of V122I amyloidogenesis,[13],inhibits both V122I and V30M amyloidogenesis in a dose dependent fashion
same,inhibition of V30M amyloidogenesis,[14],inhibits both V122I and V30M amyloidogenesis in a dose dependent fashion
same,stability of serum TTR against denaturation,[15],stabilizes serum TTR against denaturation stresses
same,rate of urea-mediated dissociation,[16],dose dependent slowing
